Results: patent US4939178A, “Use of avarol for the control of adult T-cell leukemia/lymphoma” (Merz + Co. GmbH & Co., priority 1986, dated 1990)
Read-outs that look alike come from different tables or passages of the source.

What was measured:
male NMRI mice [1] = assay: Contact allergy to oxazolone; assay type: in vivo; details: 3-30 mg/kg i.p., day -1 to +2 or day +6 to +8; P>0.05
male Sprague-Dawley rats = assay: Antibody mediated hypersensitivity, modified active Arthus reaction; assay type: in vivo
Protocol: A modified active Arthus reaction was performed as described (Titus et al., J. Immunol. Methods 45: 65-78; 1981). Male Sprague-Dawley rats (8/group) weighing 120 g were immunized by injecting into the tail base 0.5 ml of a suspension of 4.4 ml pertussis vaccine (Behringwerke, Marburg) in 65.6 ml of 0.9% saline plus 0.7 g ovalbumin (3×cryst.) in 100 ml paraffin oil. Three weeks after immunization 0.1 ml of 0.03% ovalbumin solution were injected into a hind paw and the paw volume was measured with a water plethysmometer (Rhema) immediately thereafter and again after 4 hours. The animals were treated i.p. with daily doses from 3-30 mg/kg of avarol (in 0.15% [w/v] methylcellulose) according to the following schedules: (i) day -1 to +2, (ii) day +18 to +21 or (iii) twice 24 hours and 30 minutes before challenge (day 0 represents the day of immunization). The controls received methylcellulose only. Values are compared with a control group using Student's-t-test (L. Sachs. Angewandte Statistik, Springer-Verlag, Berlin; 1984).

[2] = test system: retroviral (HTLV-I) antigen in ATL-3-I cells; assay: microbe, parasite or virus in culture; assay type: cell-based; details: Primate T-lymphotropic virus 1, read-out: Expression of retroviral antigen (in %)
[3] = Organ distribution of tritium labelled avarol; assay type: in vivo, rats
Protocol: The organ distribution was determined by the same method using tritium labelled Avarol. The determinations were performed 24 hours after termination of the i.v. application. These concentrations were determined on the basis of radioactivity. Moreover, the chemical nature of the radioactive product was identified by high-pressure liquid chromatography and found to consist of over 90% of Avarol. In addition, the biological activity of the compound in the blood was determined after extraction with ethyl acetate and estimated in the […] cell system in vitro (Muller, W. E. G. et al.; Comp. Biochem. Physiol. 80C, 47-52; 1985). Using this system, the biological activity of the compound, present in the blood, was determined and converted on a gram basis. Using this approach the concentration in the blood was only 5-15% lower than that determined on the basis of radioactivity.

[4] = test system: macrophage-containing and macrophage-depleted lymphocyte cultures; assay: [3H]-dThd incorporation in lymphocyte cultures of pretreated mice; details: pretreatment of mice with avarol, lymphocyte cultures in vitro
ATL-1K cells = assay: Cell growth of ATL-1K cells; assay type: cell-based; details: two days, control 15.7
Source text: (§1) For this, the MT-2, ATL-3I, and ATL-1K cell lines were employed. These cell lines are described by Hashino, H., et al., Proc. Nat. Academy Science U.S.A. 80, 6061-6065 (1983) and by Miyoshi, J., et al., Nature 294, 770-771 (1981). All these cell lines contain the HTLV-provirus, and among these cell lines primarily the lines MT-2 and ATL-3I express also the retrovirus antigens and also produce the HTLV-I virus.
(§2) Cell culture conditions were employed according to those described by H. Hoshino, et al., Proc. Nat. Acad. Sci. (U.S.A.) 80, 1983, 7337-7341.
(§3) ATL-3-I, MT-2, and ATL-1K cells were seeded into Petri dishes in a concentration of 3×10^3 cells/cm^2 in a culture medium containing 20% of calf serum. After incubation for two days, the density of the cells amounted to: […]: 13.2×10^3 cells/cm^2; MT-2: 12.4×10^3 cells/cm^2; ATL-1K: 15.7×10^3 cells/cm^2. These values formed the control values.
(§4) Thereupon samples of these cells were treated for two days with different concentrations of avarol.

[5] = assay type: in vivo, rats
ATL-3-I cells = assay: Cell growth of ATL-3-I cells; assay type: cell-based; details: two days, control 13.2
Source text: as §1, §2, §3, §4

[6] = test system: male NMRI mice immunized with SRBC; assay: Jerne plaque test, in vivo immunoglobulin production; details: avarol 30 mg/kg i.p., from 0 to +4
Protocol: The plaque test of Jerne and Nordin (Science 140: 405-406, 1963) was used with the modification given by Cunningham and Szenberg (Immunolog. 14: 599-601; 1968). Briefly, 8 male NMRI mice per group (20-22 g) were immunized on day 0 by i.p. injection of 5×10^8 SRBC in 0.5 ml saline. Treatment with avarol was done i.p. either from day 0 to day +4 or from day -4 to day 0. One hour after the last drug administration, the animals were killed by a blow on the head and bled. The spleens were removed and a single cell suspension was prepared by teasing the pooled spleens through a 120μm mesh sieve. After lysing the erythrocytes by 0.15M NH4 Cl, the cells were washed twice in Hank's balanced salt solution containing 29 ml of 7.5% NaHCO3 and 10 ml of 1M HEPES buffer solution per one liter. The cells were resuspended in 2 ml per spleen. Six Cunningham chambers per group were filled with a mixture of 0.5 ml of a suitable dilution of spleen cells (generally 1:100), 0.5 ml of a suspension of SRBC (10^9 /ml) and 125 μl of normal guinea pig complement. After 90-120 min of incubation at 37° C., the number of plaques was counted. Plaques per spleen or per 10^6 spleen cells were calculated.
The pooled blood of 8 mice was centrifuged to obtain the serum. IgM and IgG titers were measured with the mercaptoethanol method (Hudson, L. and Hay, F. C. Practical Immunology, Blackwell Sci., Oxford; 1983).

male NMRI mice [7] = assay: Delayed-type hypersensitivity to sheep red blood cells; assay type: in vivo
Protocol: Reaction to sheep red blood cells (SRBC): DTH was produced according to the method of Lagrange et al. (J. Exp. Med. 139: 528-542; 1974) and Liew (Eur. J. Immunol. 7, 714-718; 1977). Male NMRI mice (20-23 g, 10 animals/group) were immunized with 10^8 SRBC/40 μl into one foot pad (day 0). Four days later 10^9 SRBC/40 μl were injected into the other foot pad. After 24 hours, paw size was measured with a dial gauge caliper Odi-Test OOT (H. C. Kroeplin, Schluchtern, Germany). Avarol (in 0.15% [w/v] methylcellulose) was administered daily i.p. either from day -2 to +1 or from day +2 to +4. The level of DTH was expressed as foot pad increase, determined after 24 hrs; and it is given in mm. Non-treated groups were injected i.p. with methylcellulose only. Treated groups were compared with the controls using the U-test of Wilcoxon et al. (Sachs, L. Angewandte Statistik, Springer-Verlag, Berlin; 1984).

[8] = test system: T-cell derived leukemia cells; details: cited from earlier work
[9] = test system: peripheral human lymphocytes (buffy coat cells); assay: Interferon-gamma production by lymphocytes (EIA); assay type: cell-based
Protocol: Effector cells: Buffy coat cells were prepared by centrifugation on Ficoll-Plaque gradient and washed two times. Subsequently the cells were divided and adjusted to a concentration of 5×1,000,000 cells/ml.
Interferon measurement: Levels of Interferon were defined by an Enzymeimmunoassay (EIA). Interferon gamma: 96 well flat bottom plates (Greiner, Nuertingen) were coated with a monoclonal antibody recognizing Interferon gamma. 200 μl of the supernatant sample were added per well together with Interferon gamma-peroxidase coupled (50 μl), consisting of the same antibody as used for coating. […] The enzymatic reaction is completed by a preparation containing hydrogen peroxide substrate. The reaction is stopped within 15 minutes by 100 μl of sulfuric acid per well. The amount of Interferon is defined by comparing the extinction of the test sample with a standard curve produced by known values of Interferon gamma.

MT-2 cells = assay: Cell growth of MT-2 cells; assay type: cell-based; details: two days, control 12.4
Source text: as §1, §2, §3, §4

Which “influence on DTH oxazolone” value (male NMRI mice [1]) does the source give for `CC1=CCC[C@H]2[C@](C)(Cc3cc(O)ccc3O)[C@@H](C)CC[C@]12C` [Avarol, 2-[(1R)-1,2,3,4,4a,7,8,8aα-octahydro-1β,2β,4aβ,5-tetramethyl-1-naphthylmethyl]-1,4-benzenediol] here?
The value was “did not influence significantly”.

And the “suppression of the Arthus reaction” value (male Sprague-Dawley rats; 30 mg/kg, 24 hours and 30 minutes before challenge, P>0.05)?
The value was “not significant”.

What about the “suppression of the Arthus reaction” value (male Sprague-Dawley rats; 3-30 mg/kg i.p., day -1 to +2, day +18 to +21 or immediately before challenge) of the same molecule?
Its value is “no significant suppression”.

And the activity at 1 µg/mL [2]?
Its activity at 1 µg/mL is 82%.

What about the activity at 5 µg/mL [2] of the same molecule?
The activity at 5 µg/mL was 74%.

What about the “Concentration of Avarol, Skin” value ([3]; 10 mg/kg i.v., 24 hours) of the same molecule?
The value was 0.6 microgram of Avarol per gram o.

What about the “Concentration of Avarol, Brain” value ([3]; 20 mg/kg i.v., 24 hours) of the same molecule?
The value was 0.64 microgram of Avarol per gram o.

What about the blood-brain barrier penetration ([3]; rats) of the same molecule?
The blood-brain barrier penetration was “penetrates the blood-brain barrier”.

And the “[3H]-dThd incorporation rate” value [4]?
The value was “higher”.

And the “Cell concentration ATL-1K” value (ATL-1K cells; drug 1.0 μg/ml)?
The value was 13.4 × 10^3 /cm^2.

What about the “Cell concentration ATL-1K” value (ATL-1K cells; drug 5.0 μg/ml) of the same molecule?
The value was 10.3 × 10^3 /cm^2.

And the “Percentage of Radioactivity in Blood” value ([5]; 10 mg/kg i.v., 1 hour)?
The value was 96%.

What about the “Percentage of Radioactivity in Blood” value ([5]; 10 mg/kg i.v., 6 hours) of the same molecule?
Its value is 88%.

And the “Percentage of Radioactivity in Blood” value ([5]; 10 mg/kg i.v., 12 hours)?
The value was 72%.

What about the “Percentage of Radioactivity in Blood” value ([5]; 10 mg/kg i.v., 24 hours) of the same molecule?
The value was 43%.

And the “Percentage of Radioactivity in Blood” value ([5]; 10 mg/kg i.v., 48 hours)?
Its value is 26%.

What about the “Percentage of Radioactivity in Blood” value ([5]; 20 mg/kg i.v., 1 hour) of the same molecule?
The value was 92%.

What about the “Percentage of Radioactivity in Blood” value ([5]; 20 mg/kg i.v., 12 hours) of the same molecule?
Its value is 75%.

And the “Percentage of Radioactivity in Blood” value ([5]; 20 mg/kg i.v., 24 hours)?
Its value is 39%.

What about the “Percentage of Radioactivity in Blood” value ([5]; 20 mg/kg i.v., 48 hours) of the same molecule?
The value was 21%.

What about the “Percentage of Radioactivity in Blood” value ([5]; rat, in vivo) of the same molecule?
Its value is 83.

What about the “Cell concentration ATL-3-I” value (ATL-3-I cells; drug 1.0 μg/ml) of the same molecule?
The value was 9.4 × 10^3 /cm^2.

And the “Cell concentration ATL-3-I” value (ATL-3-I cells; drug 5.0 μg/ml)?
Its value is 8.7 × 10^3 /cm^2.

And the Cell/spleen [6]?
Its Cell/spleen is 1.2e+08 cells/spleen.

What about the “influence on DTH to SRBC” value (male NMRI mice [7]; i.p. day +2 to +4 after immunization, doses higher than 10 mg/kg) of the same molecule?
Its value is “weak but significant immunosuppressive effect”.

What about the “influence on DTH to SRBC” value (male NMRI mice [7]; i.p. day -2 to +1, up to daily doses of 30 mg/kg) of the same molecule?
The value was “no significant immunosuppressive influence”.

What about the “lymphoma cell growth inhibited by 50%” value [8] of the same molecule?
The value was 0.3 to 0.4 µg/mL.

And the “Titer of Interferon-gamma produced by lymphocytes” value ([9]; avarol 1.0 μg/ml, 48 hours)?
The value was 52 Units/ml of supernatant.

What about the “optimal dose for Interferon gamma induction in vitro” value ([9]; buffy coat cells) of the same molecule?
The value was 0.5 µg/mL.

What about the “Cell concentration MT-2” value (MT-2 cells; drug 1.0 μg/ml) of the same molecule?
Its value is 8.1 × 10^3 /cm^2.

What about the “Cell concentration MT-2” value (MT-2 cells; drug 5.0 μg/ml) of the same molecule?
Its value is 7.9 × 10^3 /cm^2.
